Patent US10654833B2, “ASK1 isoindolin-1-one inhibitors and methods of use thereof” (Hepatikos Therapeutics, LLC, priority 2018, dated 2020)

Biological target: recombinant human ASK1 protein (Homo sapiens (Human), UniProt Q99683)
Experiment: ASK1 kinase activity inhibition assay (radiometric 33P incorporation into MBP)
Type: biochemical
Details: Table 3; 20 μM MBP, 10 μM 33P-ATP
Protocol: ASK1 Kinase Activity Inhibition Assay
Inhibition of ASK1 kinase activity was determined radiometrically using 33P substrate incorporation (Reaction Biology Corp., Malvern, Pa.). Briefly, recombinant human ASK1 protein, 20 μM substrate (myelin basic protein (MBP)), and compound (diluted from DMSO stock to give 1% final DMSO) were incubated in Base Reaction buffer (20 mM Hepes (pH 7.5), 10 mM MgCl2, 1 mM EGTA, 0.02% Brij35, 0.02 mg/mL BSA, 0.1 mM Na3VO4, 2 mM DTT, 1% DMSO) at room temperature for 20 minutes. The reaction was initiated by addition of 10 μM 33P-ATP (specific activity […]). The reaction was then allowed to proceed for 2 hours at room temperature. Upon reaction termination, the mixture was spotted on P81 exchange paper and kinase activity by incorporation of 33P into MBP substrate was detected by filter-binding method.

recombinant human ASK1 protein, sequence (Q99683 whole entry): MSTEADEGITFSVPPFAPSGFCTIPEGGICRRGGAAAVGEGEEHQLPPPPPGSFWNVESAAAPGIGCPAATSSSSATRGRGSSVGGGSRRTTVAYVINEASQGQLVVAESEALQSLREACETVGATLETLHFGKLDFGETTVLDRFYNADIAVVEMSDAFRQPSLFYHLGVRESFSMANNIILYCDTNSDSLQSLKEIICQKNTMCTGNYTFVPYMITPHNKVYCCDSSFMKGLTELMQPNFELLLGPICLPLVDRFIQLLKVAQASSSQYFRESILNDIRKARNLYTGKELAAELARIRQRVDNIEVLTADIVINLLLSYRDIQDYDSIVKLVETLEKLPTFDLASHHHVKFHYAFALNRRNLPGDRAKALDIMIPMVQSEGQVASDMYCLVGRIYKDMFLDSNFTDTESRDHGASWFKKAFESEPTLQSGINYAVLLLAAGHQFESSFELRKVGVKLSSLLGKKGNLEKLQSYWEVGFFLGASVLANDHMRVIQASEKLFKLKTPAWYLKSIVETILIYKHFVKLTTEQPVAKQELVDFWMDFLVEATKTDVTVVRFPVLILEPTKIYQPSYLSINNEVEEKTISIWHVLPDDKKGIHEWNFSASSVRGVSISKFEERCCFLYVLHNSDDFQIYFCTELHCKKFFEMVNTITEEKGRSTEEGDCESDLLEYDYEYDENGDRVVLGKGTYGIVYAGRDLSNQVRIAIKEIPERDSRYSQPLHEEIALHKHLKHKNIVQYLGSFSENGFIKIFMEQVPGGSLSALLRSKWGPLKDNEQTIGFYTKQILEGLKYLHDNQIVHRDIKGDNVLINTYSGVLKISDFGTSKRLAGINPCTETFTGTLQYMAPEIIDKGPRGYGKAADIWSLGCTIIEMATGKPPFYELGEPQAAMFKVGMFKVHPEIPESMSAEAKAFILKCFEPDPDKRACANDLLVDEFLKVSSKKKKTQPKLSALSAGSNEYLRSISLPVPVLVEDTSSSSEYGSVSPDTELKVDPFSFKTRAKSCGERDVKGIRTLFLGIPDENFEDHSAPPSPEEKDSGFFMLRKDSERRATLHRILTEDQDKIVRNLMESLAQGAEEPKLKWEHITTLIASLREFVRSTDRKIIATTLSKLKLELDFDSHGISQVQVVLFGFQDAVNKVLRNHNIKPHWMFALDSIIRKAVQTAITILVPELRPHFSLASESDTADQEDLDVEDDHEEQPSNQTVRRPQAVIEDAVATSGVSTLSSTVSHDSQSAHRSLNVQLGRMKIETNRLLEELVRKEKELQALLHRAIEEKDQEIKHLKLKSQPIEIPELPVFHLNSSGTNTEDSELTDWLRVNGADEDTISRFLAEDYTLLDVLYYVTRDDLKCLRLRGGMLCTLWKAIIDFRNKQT

IC50	SMILES
5.6 nM	Cc1ccc(-c2ccc3c(c2)C(=O)N(c2cccc(-c4nncn4C(C)C)n2)C3)cc1C(=O)O [Compound 9, 5-(2-(6-(4-Isopropyl-4H-1,2,4-triazol-3-yl)pyridin-2-yl)-3-oxoisoindolin-5-yl)-2-methylbenzoic acid]
2.5 nM	O=C1c2cc(-c3ccc(C4(C(=O)O)CC4)cc3)ccc2CN1c1cccc(-c2nncn2C2CC2)n1 [Compound 87, 1-(4-(2-(6-(4-Cyclopropyl-4H-1,2,4-triazol-3-yl)pyridin-2-yl)-3-oxoisoindolin-5-yl)phenyl)cyclopropane-1-carboxylic Acid]
5.3 nM	O=C(O)c1cccc(-c2ccc3c(c2)C(=O)N(c2cccc(-c4nncn4C4CC4)n2)C3)c1 [Compound 20, 3-(2-(6-(4-Cyclopropyl-4H-1,2,4-triazol-3-yl)pyridin-2-yl)-3-oxoisoindolin-5-yl)benzoic Acid]
14.6 nM	CC(C)n1cnnc1-c1cccc(N2Cc3ccc([C@H]4CC[C@@H](C(=O)O)CC4)cc3C2=O)n1 [Compound 127, cis-4-(2-(6-(4-Isopropyl-4H-1,2,4-triazol-3-yl)pyridin-2-yl)-3-oxoisoindolin-5-yl)cyclohexane-1-carboxylic acid]
1.6 nM	CC(C)n1cnnc1-c1cccc(N2Cc3ccc(-c4nccc(C(=O)O)c4F)cc3C2=O)n1 [Compound 113, 3-Fluoro-2-(2-(6-(4-isopropyl-4H-1,2,4-triazol-3-yl) 103yridine-2-yl)-3-oxoisoindolin-5-yl) Isonicotinic Acid]
8.2 nM	COc1cc(C(=O)O)ccc1-c1ccc2c(c1)C(=O)N(c1cccc(-c3nncn3C(C)C)n1)C2 [Compound 76, 4-(2-(6-(4-Isopropyl-4H-1,2,4-triazol-3-yl)pyridin-2-yl)-3-oxoisoindolin-5-yl)-3-methoxybenzoic Acid]
2.8 nM	CC(C)n1cnnc1-c1cccc(N2Cc3ccc(-c4ccc(C(=O)O)c(S(C)(=O)=O)c4)cc3C2=O)n1 [Compound 77, 4-(2-(6-(4-Isopropyl-4H-1,2,4-triazol-3-yl)pyridin-2-yl)-3-oxoisoindolin-5-yl)-2-(methylsulfonyl)benzoic Acid]
4.1 nM	CC(C)n1cnnc1-c1cccc(N2Cc3ccc(-c4ccc5nc(C(=O)O)sc5c4)cc3C2=O)n1 [Compound 121, 6-(2-(6-(4-Isopropyl-4H-1,2,4-triazol-3-yl)pyridin-2-yl)-3-oxoisoindolin-5-yl)benzo[d]thiazole-2-carboxylic Acid]
5.1 nM	CC(C)n1cnnc1-c1cccc(N2Cc3ccc(-c4cncc(C(=O)O)c4)cc3C2=O)n1 [Compound 63, 5-(2-(6-(4-Isopropyl-4H-1,2,4-triazol-3-yl)pyridin-2-yl)-3-oxoisoindolin-5-yl)nicotinic Acid]
5.52 nM	O=C1c2cc(-c3ccc(-c4nnn[nH]4)cc3)ccc2CN1c1cccc(-c2nncn2C2CC2)n1 [Compound 92, 6-(4-(2H-Tetrazol-5-yl)phenyl)-2-(6-(4-cyclopropyl-4H-1,2,4-triazol-3-yl)pyridin-2-yl)isoindolin-1-one]
2.1 nM	Cc1c(C(=O)O)ccnc1-c1ccc2c(c1)C(=O)N(c1cccc(-c3nncn3C(C)C)n1)C2 [Compound 114, 2-(2-(6-(4-Isopropyl-4H-1,2,4-triazol-3-yl)pyridin-2-yl)-3-oxoisoindolin-5-yl)-3-methylisonicotinic Acid]
6.4 nM	CC(C)n1cnnc1-c1cccc(N2Cc3ccc(-c4cc(-c5nn[nH]n5)ccc4F)cc3C2=O)n1 [Compound 111, 6-(2-Fluoro-5-(2H-tetrazol-5-yl)phenyl)-2-(6-(4-isopropyl-4H-1,2,4-triazol-3-yl)pyridin-2-yl)isoindolin-1-one]
4 nM	CC(C)n1cnnc1-c1cccc(N2Cc3ccc(-c4ccc(CO)c(C(=O)O)c4)cc3C2=O)n1 [Compound 35, 2-(Hydroxymethyl)-5-(2-(6-(4-isopropyl-4H-1,2,4-triazol-3-yl)pyridin-2-yl)-3-oxoisoindolin-5-yl)benzoic Acid]
3.28 nM	COC(=O)c1ccc(F)c(-c2ccc3c(c2)C(=O)N(c2cccc(-c4nncn4C4CC4)n2)C3)c1 [Compound 101, Methyl 3-(2-(6-(4-cyclopropyl-4H-1,2,4-triazol-3-yl)pyridin-2-yl)-3-oxoisoindolin-5-yl)-4-fluorobenzoate]
3.2 nM	CC(C)n1cnnc1-c1cccc(N2Cc3ccc(-c4ccc5c(c4)COC5=O)cc3C2=O)n1 [Compound 82, 2-(6-(4-Isopropyl-4H-1,2,4-triazol-3-yl)pyridin-2-yl)-6-(1-oxo-1,3-dihydroisobenzofuran-5-yl)isoindolin-1-one]
5.6 nM	COc1cc(-c2ccc3c(c2)C(=O)N(c2cccc(-c4nncn4C(C)C)n2)C3)ccc1C(=O)O [Compound 75, 4-(2-(6-(4-Isopropyl-4H-1,2,4-triazol-3-yl)pyridin-2-yl)-3-oxoisoindolin-5-yl)-2-methoxybenzoic Acid]
3.5 nM	CC(C)n1cnnc1-c1cccc(N2Cc3ccc(-c4ccc5ncc(C(=O)O)n5c4)cc3C2=O)n1 [Compound 123, 6-(2-(6-(4-Isopropyl-4H-1,2,4-triazol-3-yl)pyridin-2-yl)-3-oxoisoindolin-5-yl)imidazo [1,2-a]pyridine-3-carboxylic Acid]
4.9 nM	CC(C)n1cnnc1-c1cccc(N2Cc3ccc(-c4ccc(F)c(C(=O)O)c4)cc3C2=O)n1 [Compound 3, 2-Fluoro-5-(2-(6-(4-isopropyl-4H-1,2,4-triazol-3-yl)pyridin-2-yl)-3-oxoisoindolin-5-yl)benzoic Acid]
42.2 nM	CC(C)n1cnnc1-c1cccc(N2Cc3ccc(-c4ccccc4C(=O)O)cc3C2=O)n1 [Compound 56, 2-(2-(6-(4-Isopropyl-4H-1,2,4-triazol-3-yl)pyridin-2-yl)-3-oxoisoindolin-5-yl)benzoic Acid]
13.4 nM	CC(C)n1cnnc1-c1cccc(N2Cc3ccc([C@H]4CC[C@H](C(=O)O)CC4)cc3C2=O)n1 [Compound 126, trans-4-(2-(6-(4-Isopropyl-4H-1,2,4-triazol-3-yl)pyridin-2-yl)-3-oxoisoindolin-5-yl)cyclohexane-1-carboxylic acid]
5.4 nM	CC(C)n1cnnc1-c1cccc(N2Cc3ccc(-c4ccc(C(=O)O)c(F)c4)cc3C2=O)n1 [Compound 67, 2-Fluoro-4-(2-(6-(4-isopropyl-4H-1,2,4-triazol-3-yl)pyridin-2-yl)-3-oxoisoindolin-5-yl)benzoic Acid]
7 nM	CC(C)n1cnnc1-c1cccc(N2Cc3ccc(-c4ncc5ccc(C(=O)O)cc5n4)cc3C2=O)n1 [Compound 125, 2-(2-(6-(4-Isopropyl-4H-1,2,4-triazol-3-yl)pyridin-2-yl)-3-oxoisoindolin-5-yl)quinazoline-7-carboxylic Acid]
12.5 nM	CC(C)(C(=O)O)c1cccc(-c2ccc3c(c2)C(=O)N(c2cccc(-c4nncn4C4CC4)n2)C3)c1 [Compound 103, 2-(3-(2-(6-(4-Cyclopropyl-4H-1,2,4-triazol-3-yl)pyridin-2-yl)-3-oxoisoindolin-5-yl)phenyl)-2-methylpropanoic Acid]
5.9 nM	Cc1ccc(C(=O)O)cc1-c1ccc2c(c1)C(=O)N(c1cccc(-c3nncn3C(C)C)n1)C2 [Compound 11, 3-(2-(6-(4-Isopropyl-4H-1,2,4-triazol-3-yl)pyridin-2-yl)-3-oxoisoindolin-5-yl)-4-methylbenzoic Acid]
7.9 nM	CC(C)n1cnnc1-c1cccc(N2Cc3ccc(-c4ccc(-c5nnn[nH]5)cc4)cc3C2=O)n1 [Compound 91, 6-(4-(2H-Tetrazol-5-yl)phenyl)-2-(6-(4-isopropyl-4H-1,2,4-triazol-3-yl)pyridin-2-yl)isoindolin-1-one]

Biological target: human OATP1B1 transporter (Homo sapiens (Human), UniProt Q9Y6L6)
Sequence (Q9Y6L6 whole entry): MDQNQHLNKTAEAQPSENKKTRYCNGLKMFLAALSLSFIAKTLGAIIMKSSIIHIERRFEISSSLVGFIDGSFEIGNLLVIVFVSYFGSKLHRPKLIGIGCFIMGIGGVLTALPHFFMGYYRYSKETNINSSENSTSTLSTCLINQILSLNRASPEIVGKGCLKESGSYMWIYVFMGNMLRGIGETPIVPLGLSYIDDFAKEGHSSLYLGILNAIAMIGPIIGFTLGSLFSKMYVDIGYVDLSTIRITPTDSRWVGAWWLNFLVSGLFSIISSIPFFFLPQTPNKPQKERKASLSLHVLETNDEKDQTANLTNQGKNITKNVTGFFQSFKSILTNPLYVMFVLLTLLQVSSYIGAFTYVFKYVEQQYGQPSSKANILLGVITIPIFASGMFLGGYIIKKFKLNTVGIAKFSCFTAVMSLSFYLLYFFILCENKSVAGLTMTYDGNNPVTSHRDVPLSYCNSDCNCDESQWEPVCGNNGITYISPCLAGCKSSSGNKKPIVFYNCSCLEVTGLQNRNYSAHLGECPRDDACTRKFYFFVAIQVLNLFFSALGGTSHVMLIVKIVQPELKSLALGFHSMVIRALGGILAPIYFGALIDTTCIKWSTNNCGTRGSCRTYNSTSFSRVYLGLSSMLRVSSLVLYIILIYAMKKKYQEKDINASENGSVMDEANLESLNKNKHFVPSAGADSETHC
Experiment: Transporter mediated cellular uptake, OATP1B1-expressing HEK293
Type: in vitro ADME
Details: HEK293 stably expressing human OATP1B1, 37° C., 0.5 minutes
Protocol: (§1) Transporter Mediated Cellular Uptake
(§2) To determine transporter mediated cellular uptake of compounds, HEK293 stably expressing either human OATP1B1 or human OATP1B3 transporter, or mock transfected cells were cultured at 37° C. in an atmosphere of 95:5 air:CO2 DMEM/F12 medium containing 10% FBS, 100 unit/mL penicillin-G and 100 μg/mL streptomycin. Transporter expressing cell culture medium also contained 500 μg/mL G418 disulfate solution. Cells were plated onto 24-well poly-D-lysine coated culture plates at the density 5×10^5 cells/well 24 hours prior to uptake assay. Compound stock solutions were made at 1000× final concentration in 100% DMSO. Final compound solutions were prepared by diluting stock solutions into HBSS buffer (pH 7.4) On the day of the uptake assay cell culture media was removed and cells were washed twice with 300 μL of HBSS buffer (pH 7.4). Cellular uptake of compound into the cells was measured by adding 300 μL of final compound solutions in HBSS and incubating them at 37° C. for 0.5 minutes (OATP1B1) or 5 minutes (OATP1B3). Reactions were quenched by removing the buffer containing the TA and the cells were washed twice with 300 μL of HBSS buffer. Cells were lysed by adding 300 μL of MeOH:H2O (2:1) and incubated for 20 minutes at 4° C. The amount of compound in the cell lysate was determined by LC-MS/MS. The amount of protein in each well was quantified using the BCA kit for protein determination and used to normalize compound uptake (Sigma-Aldrich, St Louis, Mo., USA). • Uptake of the probe substrate in control cells provided background activity values for all data points. • Incubation with probe substrate (solvent only) provided 100% activity values. • A reference positive control was used for each transporter

SMILES	OATP1B1 Uptake (Percent of no transporter control cell)
C[C@]12CC[C@@H]3c4ccc(OS(=O)(=O)O)cc4CC[C@H]3[C@@H]1CCC2=O [Estrone 3-sulphate, reference compound]	685%

Biological target: human OATP1B3 transporter (Homo sapiens (Human), UniProt Q9NPD5)
Sequence (Q9NPD5 whole entry): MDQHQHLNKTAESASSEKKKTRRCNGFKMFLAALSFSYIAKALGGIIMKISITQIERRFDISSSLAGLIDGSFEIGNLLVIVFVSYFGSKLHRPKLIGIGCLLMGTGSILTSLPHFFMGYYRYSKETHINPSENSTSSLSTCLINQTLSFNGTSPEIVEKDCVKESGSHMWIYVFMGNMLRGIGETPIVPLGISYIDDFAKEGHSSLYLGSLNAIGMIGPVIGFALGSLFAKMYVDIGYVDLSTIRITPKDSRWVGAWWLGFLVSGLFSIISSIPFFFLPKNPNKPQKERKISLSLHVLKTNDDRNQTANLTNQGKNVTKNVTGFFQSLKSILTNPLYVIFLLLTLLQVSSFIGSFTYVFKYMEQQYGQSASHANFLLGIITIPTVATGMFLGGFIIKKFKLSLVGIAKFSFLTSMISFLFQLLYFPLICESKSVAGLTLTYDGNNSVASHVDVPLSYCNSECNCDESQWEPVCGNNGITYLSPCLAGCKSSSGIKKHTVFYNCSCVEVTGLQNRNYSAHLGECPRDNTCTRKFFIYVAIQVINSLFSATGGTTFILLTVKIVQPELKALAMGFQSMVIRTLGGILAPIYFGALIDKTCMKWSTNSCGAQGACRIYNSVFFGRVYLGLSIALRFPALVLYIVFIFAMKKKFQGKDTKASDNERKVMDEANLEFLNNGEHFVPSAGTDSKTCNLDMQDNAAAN
Experiment: Transporter mediated cellular uptake, OATP1B3-expressing HEK293
Type: in vitro ADME
Details: HEK293 stably expressing human OATP1B3, 37° C., 5 minutes
Protocol: as §1, §2

OATP1B3 Uptake (Percent of no transporter control cell)	SMILES
490%	C[C@]12CC[C@@H]3c4ccc(O)cc4CC[C@H]3[C@@H]1CC[C@@H]2O [Estradiol, reference compound]
